One series concerns antibody. As to the kind of experiment: Antibody aggregation assessed by DLS after freeze-drying and storage. It is filed as physicochemical. As to conditions: antibody 1 mg/mL, reconstituted with MilliQ water. As to the method:
500 uL of 1 mg/mL antibody formulations were placed in a vial prior to deep-freeze in liquid nitrogen. The frozen samples were placed directly in the freeze-dryer. After 24 hr, the lyophilized samples were stored in a fridge at 4° C. for 7 or 28 days. The sample were then reconstituted with addition of MilliQ® water before assessing their stability by DLS and cell binding assays.
The aggregation of antibody was assessed by dynamic light scattering (DLS) operating at 25° C. The measurements were done at different timepoints during storage at […] and right after nebulization.
The mean hydrodynamic diameter by intensities of the monomer was distributed at d=10 nm while aggregates was distributed at a d >10 nm.
The addition of 5.6 mM C16Tre1S and C8Tre1S trehalose surfactants as cryoprotectant was assessed on 1 mg/mL antibody formulations. The samples were first deep-frozen in liquid nitrogen before drying for 24 hr. The lyophilized samples were stored in a fridge for 0, 7 or 28 days before reconstitution with addition of MilliQ® water. The conformation and functionality of antibody after the process were assessed by DLS and cell binding assays respectively. The results were compared to antibody formulated in PBS only and formulated with standard cryoprotectants such as trehalose (5 wt % and 5.6 mM) and Tween 80 (5.6 mM).

Series [1] relates to SARS-CoV-2 spike-expressing HEK293 cells. It is filed as cell-based.

Each structure is given as a SMILES string.

For the compound `OC[C@H]1O[C@H](O[C@H]2O[C@H](CO)[C@@H](O)[C@H](O)[C@H]2O)[C@H](O)[C@@H](O)[C@@H]1O` [Trehalose], the “antibody aggregation after freeze-drying (DLS)” value with antibody (excipient 5.6 mM) was “aggregations were observed”; in the series on antibody (excipient 5 wt %), “Comparable results”. For the same compound, the “antibody binding to spike-expressing HEK293 cells after lyophilization (fluorescence signal)” value in series [1] is listed as “significant decrease of antibody binding”.

For the compound `CCCCCCCC/C=C\CCCCCCCC(=O)OCCOCC(OCCO)C1OCC(OCCO)C1OCCO` (stereo not drawn) [Tween 80], the “antibody aggregation after freeze-drying (DLS)” value in the series with antibody (excipient 5.6 mM) is “Comparable results”. In series [1], the “antibody binding to Spike protein after nebulization of the reconstituted formulation” value was “at the same level as before nebulization” and the “antibody binding to spike-expressing HEK293 cells after lyophilization (fluorescence signal)” value is reported as “Comparable results”.

These data come from patent US20250304610A1, “TREHALOSE-BASED SURFACTANTS” (priority 2022, published 2025).
